Test results: ChEMBL document CHEMBL1147704, “Design and synthesis of 7H-pyrrolo[2,3-d]pyrimidines as focal adhesion kinase inhibitors. Part 2” (Bioorg Med Chem Lett, 2006)

Biological target: Focal adhesion kinase 1 (Homo sapiens, UniProt Q05397)
Sequence (Q05397 whole entry): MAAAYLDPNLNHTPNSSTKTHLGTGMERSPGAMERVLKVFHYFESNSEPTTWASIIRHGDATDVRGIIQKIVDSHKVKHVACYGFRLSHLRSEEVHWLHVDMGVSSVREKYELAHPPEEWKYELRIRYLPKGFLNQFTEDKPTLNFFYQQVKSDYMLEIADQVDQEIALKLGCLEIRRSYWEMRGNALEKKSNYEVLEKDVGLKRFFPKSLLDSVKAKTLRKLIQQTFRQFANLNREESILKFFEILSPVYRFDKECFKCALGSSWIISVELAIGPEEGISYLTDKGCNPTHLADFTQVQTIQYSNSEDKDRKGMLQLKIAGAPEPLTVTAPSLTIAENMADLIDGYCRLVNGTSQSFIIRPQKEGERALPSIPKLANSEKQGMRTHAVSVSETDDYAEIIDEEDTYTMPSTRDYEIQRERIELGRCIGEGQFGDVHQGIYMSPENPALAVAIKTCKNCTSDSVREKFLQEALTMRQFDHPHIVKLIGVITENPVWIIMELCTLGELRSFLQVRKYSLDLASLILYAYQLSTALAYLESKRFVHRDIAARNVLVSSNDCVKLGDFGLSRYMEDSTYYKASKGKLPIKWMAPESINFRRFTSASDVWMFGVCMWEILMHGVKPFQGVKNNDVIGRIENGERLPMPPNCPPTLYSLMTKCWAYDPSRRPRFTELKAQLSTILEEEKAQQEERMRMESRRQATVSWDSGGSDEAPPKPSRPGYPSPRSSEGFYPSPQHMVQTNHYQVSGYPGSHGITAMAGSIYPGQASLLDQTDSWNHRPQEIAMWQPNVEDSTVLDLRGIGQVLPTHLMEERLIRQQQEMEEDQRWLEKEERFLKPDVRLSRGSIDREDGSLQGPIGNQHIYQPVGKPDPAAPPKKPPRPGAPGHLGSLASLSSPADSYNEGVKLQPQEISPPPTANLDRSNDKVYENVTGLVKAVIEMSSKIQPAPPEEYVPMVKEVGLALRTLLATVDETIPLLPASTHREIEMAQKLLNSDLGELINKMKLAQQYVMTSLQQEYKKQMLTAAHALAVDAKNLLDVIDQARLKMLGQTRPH

SMILES | IC50 [µM]
COc1cc(Nc2ncc3ccn(-c4cccc(CCC(=O)O)n4)c3n2)cc(OC)c1OC | 0.004
COc1cc(Nc2ncc3ccn(-c4ccccn4)c3n2)cc(OC)c1OC | 0.212
